Here are results for 31 compounds from patent US10005767B2, “Compositions and methods for inhibition of the JAK pathway” (Rigel Pharmaceuticals, Inc., priority 2009, dated 2018).

Where a name gives a salt, the structure may show the parent alone.

As usually defined, the IC50 is the point on the concentration scale where inhibition reaches its midpoint.

One assay has as its system human primary T-cells, IL-2 stimulated proliferation (JAK-1 and JAK-3 dependent; reported as JAK3 activity). Nature of the assay: Human primary T-cell proliferation stimulated by IL-2 (Example 3). The following applies: Homo sapiens, T-cell, tested under conditions described in Example 3 (IL-2 stimulated human primary T-cell proliferation); read-out: ability to inhibit JAK3 activity, IC50 range (Table V). It is filed as cell-based. The gist of the method: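 Peripheral-blood human T-cells pre-activated via TCR/CD28, IL-2-starved overnight, then cultured 72 h at 37 °C with compound in Yssel's medium containing IL-2 (80 U/mL in cell suspension). Proliferation read as viable-cell ATP by CellTiter-Glo luminescence; reduction versus control taken as JAK pathway inhibition.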
`Cc1cnc(Nc2ccc(N3CCN(C)CC3)nc2)nc1Nc1ccc2c(c1)oc(=O)n2C` [II-23, N2-(6-(4-methylpiperazin-1-yl)pyridin-3-yl)-N4-(3-methyl-2-oxo-2,3-dihydrobenzo[d]oxazol-6-yl)-5-methylpyrimidine-2,4-diamine trifluoroacetate salt]: the 50% inhibitory concentration (IC50) is less than 500 nM.

Turning to `Cc1ccc(Nc2ncc(C)c(Nc3ccc4oc(=O)[nH]c4c3)n2)c(F)c1` [Compound I-514, 5-(2-(2-fluoro-4-methylphenylamino)-5-methylpyrimidin-4-ylamino)benzo[d]oxazol-2(3H)-one], the IC50 is less than 500 nM. Consider `COC(=O)c1ccc(Nc2ncc(C)c(Nc3ccc4oc(=O)[nH]c4c3)n2)cc1` [Compound I-125, 4-[5-Methyl-4-(2-oxo-2,3-dihydro-benzooxazol-5-ylamino)-pyrimidin-2-ylamino]-benzoic acid methyl ester], for which the IC50 was less than 500 nM. As to `COc1ccc(Nc2ncc(C)c(Nc3ccc4oc(=O)[nH]c4c3)n2)cc1C(=O)N1CCN(C)CC1` [Compound I-263, 5-(2-(4-methoxy-3-(4-methylpiperazine-1-carbonyl)phenylamino)-5-methylpyrimidin-4-ylamino)benzo[d]oxazol-2(3H)-one], the IC50 is less than 500 nM.

With `Cc1cnc(Nc2ccc(C(=O)NC3CC3)cc2)nc1Nc1ccc2oc(=O)[nH]c2c1` [Compound I-134, N-Cyclopropyl-4-[5-methyl-4-(2-oxo-2,3-dihydro-benzooxazol-5-ylamino)-pyrimidin-2-ylamino]-benzamide formate salt], the IC50 is less than 500 nM. Same read-out and setting: next, `Cc1cnc(Nc2ccc(N3CC4(C)CN(C)CC(C)(C3)C4)c(F)c2)nc1Nc1ccc2oc(=O)[nH]c2c1` [Compound I-6, N4-(benzo[d]oxazol-2(3H)-on-5-yl)-N2-(3-fluoro-4-(1,5,7-trimethyl-3,7-diazabicyclo[3.3.1]nonan-3-yl)phenyl)-5-methylpyrimidine-2,4-diamine]: less than 500 nM; `COc1cc(Nc2ncc(C)c(Nc3ccc4oc(=O)[nH]c4c3)n2)cnc1OC` [II-140, N2-(2,3-dimethoxypyridin-5-yl)-5-methyl-N4-(2-oxo-2,3-dihydro-1,3-benzoxazol-5-yl)-2,4-pyrimidinediamine]: less than 500 nM. For the compound `Cc1cnc(Nc2ccc(C(=O)O)c(C(F)(F)F)c2)nc1Nc1ccc2oc(=O)[nH]c2c1` [Compound I-222, 4-(5-methyl-4-(2-oxo-2,3-dihydrobenzo[d]oxazol-5-ylamino)pyrimidin-2-ylamino)-2-(trifluoromethyl)benzoic acid], the IC50 lay within 500 to 5000 nM.

With `Cc1cnc(Nc2cccc(C(F)(F)F)c2C)nc1Nc1ccc2oc(=O)[nH]c2c1` [Compound I-518, 5-[5-Methyl-2-(2-methyl-3-trifluoromethyl-phenylamino)-pyrimidin-4-ylamino]-3H-benzooxazol-2-one], the IC50 was less than 500 nM. On the same count and under the same terms, under `Cc1ccc(Nc2ncc(C)c(Nc3ccc4oc(=O)[nH]c4c3)n2)cc1-c1ccncc1` [Compound I-443, 5-(5-methyl-2-(4-methyl-3-(pyridin-4-yl)phenylamino)pyrimidin-4-ylamino)benzo[d]oxazol-2(3H)-one] stands less than 500 nM. Consider `Cc1cnc(Nc2cnc(N3CC4CCC(C3)N4C)c(C)c2)nc1Nc1ccc2oc(=O)[nH]c2c1` [II-64, 5-(5-methyl-2-(5-methyl-6-(8-methyl-3,8-diaza-bicyclo[3.2.1]octan-3-yl)pyridin-3-ylamino)pyrimidin-4-ylamino)benzo[d]oxazol-2(3H)-one], for which the IC50 was less than 500 nM.

On to `Cc1ccc(Nc2ncc(C)c(Nc3ccc4oc(=O)[nH]c4c3)n2)cc1C(F)F` [Compound I-438, 5-(2-(3-(difluoromethyl)-4-methylphenylamino)-5-methylpyrimidin-4-ylamino)benzo[d]oxazol-2(3H)-one], for which the IC50 was less than 500 nM. The same measure, in the same setting: under `Cc1cnc(Nc2ccc(N(C)[C@@H]3CCCNC3)nc2)nc1Nc1ccc2oc(=O)[nH]c2c1` [II-108, (R)-5-(5-methyl-2-(6-(methyl(piperidin-3-yl)amino)pyridin-3-ylamino)pyrimidin-4-ylamino)benzo[d]oxazol-2(3H)-one] stands less than 500 nM.

`Cc1cnc(Nc2cc(C)c(I)c(C)c2)nc1Nc1ccc2oc(=O)[nH]c2c1` [Compound I-527, 5-[2-(4-Iodo-3,5-dimethyl-phenylamino)-5-methyl-pyrimidin-4-ylamino]-3H-benzooxazol-2-one]: the IC50 was less than 500 nM. On to `Cc1cnc(Nc2ccc(N(C)[C@H]3CCCN(Cc4ccccc4)C3)nc2)nc1Nc1ccc2oc(=O)[nH]c2c1` [II-95, (S)-5-(2-(6-((1-benzylpiperidin-3-yl)(methyl)amino)pyridin-3-ylamino)-5-methylpyrimidin-4-ylamino)benzo[d]oxazol-2(3H)-one], for which the IC50 is less than 500 nM. On to `C=C1C[C@@H](O)CN1c1ccc(Nc2ncc(C)c(Nc3ccc4oc(=O)[nH]c4c3)n2)cn1` [II-126, N2-[2-(4R-hydroxy-2-methylidene-pyrrolidin-1-yl)pyridin-5-yl]-5-methyl-N4-(2-oxo-2,3-dihydro-1,3-benzoxazol-5-yl)-2,4-pyrimidinediamine], for which the IC50 was in the range of 500 to 5000 nM.

On to `Cc1cnc(Nc2cnc3onc(C)c3c2)nc1Nc1ccc2oc(=O)[nH]c2c1` [IV-43, 5-methyl-N2-(3-methylisoxazolo[5,4-b]pyridin-5-yl)-N4-(2-oxo-2,3-dihydro-1,3-benzoxazol-5-yl)-2,4-pyrimidinediamine], for which the IC50 is less than 500 nM.

The same assay, now with this note: tested under conditions described in Example 3 (IL-2 stimulated human primary T-cell proliferation); read-out: ability to inhibit JAK3 activity, IC50 range (Table V).
In the case of `Cn1c(=O)oc2ccc(Nc3nc(Nc4ccc(F)c(NS(C)(=O)=O)c4)ncc3F)cc21` [Compound I-91, N2-((4-fluoro-3-methylsulfonylamino)phenyl)-N4-(3-methyl-2-oxo-2,3-dihydrobenzo[d]oxazol-5-yl)-5-fluoropyrimidine-2,4-diamine], the IC50 was in the range of 500 to 5000 nM. As to `Cc1cnc(Nc2cc(C)c(OC(C)(C)C(N)=O)c(C)c2)nc1Nc1ccc2oc(=O)[nH]c2c1` [Compound I-389, N2-[4-(1-aminocarbonyl-1-methyl)ethoxy-3,5-dimethyl]phenyl-5-methyl-N4-(2-oxo-2,3-dihydro-1,3-benzoxazol-5-yl)-2,4-pyrimidinediamine], the IC50 is less than 500 nM.

With `Cc1cnc(Nc2cc(C)c(C)c(C)c2)nc1Nc1ccc2oc(=O)[nH]c2c1` [Compound I-365, N2-(3,4,5-trimethyl)phenyl-5-methyl-N4-(2-oxo-2,3-dihydro-1,3-benzoxazol-5-yl)-2,4-pyrimidinediamine], the IC50 was less than 500 nM. As to `Cc1cnc(Nc2ccc(S(C)(=O)=O)cc2)nc1Nc1ccc2c(c1)oc(=O)n2C` [Compound I-66, N2-((4-methylsulfonyl)phenyl)-N4-(3-methyl-2-oxo-2,3-dihydrobenzo[d]oxazol-6-yl)-5-methylpyrimidine-2,4-diamine], the IC50 is less than 500 nM.

For `Cc1cnc(Nc2ccc(OC(F)(F)F)c(Cl)c2)nc1Nc1ccc2oc(=O)[nH]c2c1` [Compound I-366, N2-(3-chloro-4-trifluoromethoxy)phenyl-5-methyl-N4-(2-oxo-2,3-dihydro-1,3-benzoxazol-5-yl)-2,4-pyrimidinediamine], the IC50 was less than 500 nM. For `Cn1c(=O)oc2cc(Nc3nc(Nc4cccc(S(N)(=O)=O)c4)ncc3F)ccc21` [Compound I-57, N2-((3-aminosulfonyl)phenyl)-N4-(3-methyl-2-oxo-2,3-dihydrobenzo[d]oxazol-6-yl)-5-fluoropyrimidine-2,4-diamine], the IC50 was less than 500 nM. For the compound `Cc1cc(Nc2ncc(C)c(Nc3ccc4oc(=O)[nH]c4c3)n2)ccc1N1CCN2CCC1CC2` [Compound I-120, N4-(benzo[d]oxazol-2(3H)-on-5-yl)-N2-((4-(1,4-diazabicyclo[3.2.2]nonan-4-yl)-3-methyl)phenyl)-5-methylpyrimidine-2,4-diamine], the IC50 is less than 500 nM.

`CCCn1c(=O)oc2ccc(Nc3nc(Nc4cccc(S(C)(=O)=O)c4)ncc3C)cc21` [Compound I-7, N4-(3-n-propylbenzo[d]oxazol-2(3H)-on-5-yl)-N2-((3-methylsulfonyl)phenyl)-5-methylpyrimidine-2,4-diamine]: the IC50 was less than 500 nM. On the same count and under the same terms, under `COc1ccc(Nc2ncc(C)c(Nc3ccc4oc(=O)[nH]c4c3)n2)cc1OCCN(C)C` [Compound I-300, N2-{4-methoxy-3-[2-(dimethylamino)ethoxy]}phenyl-5-methyl-N4-(2-oxo-2,3-dihydro-1,3-benzoxazol-5-yl)-2,4-pyrimidinediamine] stands less than 500 nM. `Cc1ccc(Nc2ncc(F)c(Nc3ccc4c(c3)oc(=O)n4C)n2)cc1NS(C)(=O)=O` [Compound I-86, N2-((3-methylsulfonylamino-4-methyl)phenyl)-N4-(3-methyl-2-oxo-2,3-dihydrobenzo[d]oxazol-6-yl)-5-fluoropyrimidine-2,4-diamine]: the IC50 was more than 10000 nM.

With `Cc1ccc(Nc2ncc(C)c(Nc3ccc4oc(=O)[nH]c4c3)n2)cc1F` [Compound I-363, N2-(3-fluoro-4-methyl)phenyl-5-methyl-N4-(2-oxo-2,3-dihydro-1,3-benzoxazol-5-yl)-2,4-pyrimidinediamine], the IC50 is less than 500 nM. As to `Cc1cnc(Nc2ccc(F)c(NS(C)(=O)=O)c2)nc1Nc1ccc2c(c1)oc(=O)n2C` [Compound I-89, N2-((4-fluoro-3-methylsulfonylamino)phenyl)-N4-(3-methyl-2-oxo-2,3-dihydrobenzo[d]oxazol-6-yl)-5-methylpyrimidine-2,4-diamine], the IC50 was less than 500 nM. As to `COc1ccc(Nc2ncc(C)c(Nc3ccc4oc(=O)[nH]c4c3)n2)cc1C#N` [Compound I-373, N2-(3-cyano-4-methoxy)phenyl-5-methyl-N4-(2-oxo-2,3-dihydro-1,3-benzoxazol-5-yl)-2,4-pyrimidinediamine], the IC50 is less than 500 nM. Turning to `CC(=O)N(C)c1ccc(Nc2ncc(C)c(Nc3ccc4oc(=O)[nH]c4c3)n2)cc1` [Compound I-309, N2-[4-(N-acetyl-N-methyl)amino]phenyl-5-methyl-N4-(2-oxo-2,3-dihydro-1,3-benzoxazol-5-yl)-2,4-pyrimidinediamine], the IC50 is less than 500 nM.
